Consider 22 compounds from patent publication US11174250B2, “Substituted carboxamides as inhibitors of WDR5 protein-protein binding” (PROPELLON THERAPEUTICS INC., priority 2016, dated 2021).

One assay addresses MLL1-WRAD2 complex (Homo sapiens (Human), UniProt P61964). Nature of the assay: MLL1-WRAD2 enzyme assay (in vitro methyl transferase assay). Format: biochemical. The method, then:
Reaction was initiated with 1 μM 3H-SAM and incubated for 1 hour at 30° C. Reaction mixture was transferred to P81 filter-paper and washed with PBS before detection.

The next assay has as its target WDR5 protein (Homo sapiens (Human), UniProt P61964). The assay can be described thus: Surface Plasmon Resonance (SPR) assay. In kind it is binding. The conditions noted are these: for residence time: τ=1/koff, read-out: Residence Time (t, min).
[1] abbreviates: MLL1-WRAD2 assay, read-out: In vitro MLL1 activity (IC50).
Setting [2] is: SPR, Table 1, read-out: WDR5 binding affinity (KD).
[3] abbreviates: SPR, Table 2, read-out: WDR5 binding affinity SPR (KD).
Setting [4] is: Table 4, effect of Fluoro-substitution, read-out: KD (SPR).

For orientation: IC50 means the concentration at which inhibition is half-maximal. For orientation: Kd means a measure of binding affinity in units of concentration. What is called residence time is the mean lifetime of the complex, commonly the reciprocal of the off-rate.

Each structure is given as a SMILES string. Read-outs that look alike come from different tables or passages of the source. Some results are limits rather than exact numbers.

`CC(C)COc1ccc(F)c(-c2ccc(N3CCN(C)CC3)c(NC(=O)c3c[nH]c(=O)cc3C(F)(F)F)c2)c1` [Example 6, N-(2′-fluoro-5′-isobutoxy-4-(4-methylpiperazin-1-yl)-[1,1′-biphenyl]-3-yl)-6-oxo-4-(trifluoromethyl)-1,6-dihydropyridine-3-carboxamide]: the IC50 on MLL1-WRAD2 complex (setting [1]) was 2510 nM. In addition, the Kd at WDR5 protein (setting [2]) and on WDR5 protein (setting [3]) was 76 nM throughout. Also, the residence time at WDR5 protein (SPR) came to 0.19 min.

Turning to `CN1CCN(c2ccc(-c3ccc(OC4CCOCC4)nc3F)cc2NC(=O)c2c[nH]c(=O)cc2C(F)(F)F)CC1` [Example 8, N-(5-(2-fluoro-6-((tetrahydro-2H-pyran-4-yl)oxy)pyridin-3-yl)-2-(4-methylpiperazin-1-yl)phenyl)-6-oxo-4-(trifluoromethyl)-1,6-dihydropyridine-3-carboxamide], the IC50 at MLL1-WRAD2 complex (setting [1]) was 1480 nM. For the same compound, the Kd on WDR5 protein (setting [2]) and on WDR5 protein (setting [3]) was 5 nM throughout. Further, the residence time on WDR5 protein (SPR) stood at 5.85 min.

Consider `Cc1cc(C(=O)Nc2cc(-c3cc(CN4CCOCC4)ccc3F)ccc2N2CCN(C)CC2)cc(C)c1F` [Example 11, 4-fluoro-N-(2′-fluoro-4-(4-methylpiperazin-1-yl)-5′-(morpholinomethyl)-[1,1′-biphenyl]-3-yl)-3,5-dimethylbenzamide], for which the IC50 at MLL1-WRAD2 complex (setting [1]) is 4430 nM. The Kd on WDR5 protein (setting [2]) and at WDR5 protein (setting [3]) was 6 nM throughout. Moreover, at WDR5 protein (SPR), the residence time was 1.04 min.

Take `CN1CCN(c2ccc(-c3cc(CN4CCOCC4)ccc3F)cc2NC(=O)c2cn(C)c(=O)cc2C(F)(F)F)CC1` [Example 13, N-(2′-fluoro-4-(4-methylpiperazin-1-yl)-5′-(morpholinomethyl)-[1,1′-biphenyl]-3-yl)-1-methyl-6-oxo-4-(trifluoromethyl)-1,6-dihydropyridine-3-carboxamide]: the IC50 at MLL1-WRAD2 complex (setting [1]) was 8980 nM. The Kd on WDR5 protein (setting [2]) and at WDR5 protein (setting [3]) was 15 nM in each case. At WDR5 protein (SPR), the residence time was 0.3 min.

`Cc1cc(=O)[nH]cc1C(=O)Nc1cc(-c2cc(CN3CCOCC3)ccc2F)ccc1N1CCN(C)CC1` [Example 29, N-(2′-fluoro-4-(4-methylpiperazin-1-yl)-5′-(morpholinomethyl)-[1,1′-biphenyl]-3-yl)-4-methyl-6-oxo-1,6-dihydropyridine-3-carboxamide]: the IC50 at MLL1-WRAD2 complex (setting [1]) was 26700 nM. The Kd at WDR5 protein (setting [2]) and at WDR5 protein (setting [3]) was 262 nM in each case. For the same compound, the residence time on WDR5 protein (SPR) turned out to be 0.42 min.

As for `CN1CCN(c2ccc(-c3ccc(CNC4CCCC4)cc3F)cc2NC(=O)c2c[nH]c(=O)cc2C(F)(F)F)CC1` [Example 33, N-(4′-((cyclopentylamino)methyl)-2′-fluoro-4-(4-methylpiperazin-1-yl)-[1,1′-biphenyl]-3-yl)-6-oxo-4-(trifluoromethyl)-1,6-dihydropyridine-3-carboxamide], at MLL1-WRAD2 complex (setting [1]), the IC50 came out at 8450 nM. Further, the Kd on WDR5 protein (setting [2]) and on WDR5 protein (setting [3]) was 23 nM in each case. Moreover, the residence time at WDR5 protein (SPR) worked out at 1.37 min.

Consider `CN1CCN(c2ccc(-c3ccc(CNC4CCCCC4)cc3F)cc2NC(=O)c2c[nH]c(=O)cc2C(F)(F)F)CC1` [Example 34, N-(4′-((cyclohexylamino)methyl)-2′-fluoro-4-(4-methylpiperazin-1-yl)-[1,1′-biphenyl]-3-yl)-6-oxo-4-(trifluoromethyl)-1,6-dihydropyridine-3-carboxamide], for which, on MLL1-WRAD2 complex (setting [1]), the IC50 stood at 13700 nM. In addition, the Kd on WDR5 protein (setting [2]) and on WDR5 protein (setting [3]) was 21 nM each time. For the same compound, the residence time on WDR5 protein (SPR) turned out to be 0.26 min.

With `CN1CCN(c2ccc(-c3cc(CNC(C)(C)C)ccc3F)cc2NC(=O)c2c[nH]c(=O)cc2C(F)(F)F)CC1` [Example 35, N-(5′-((tert-butylamino)methyl)-2′-fluoro-4-(4-methylpiperazin-1-yl)-[1,1′-biphenyl]-3-yl)-6-oxo-4-(trifluoromethyl)-1,6-dihydropyridine-3-carboxamide], the IC50 on MLL1-WRAD2 complex (setting [1]) was found to be 2390 nM. Moreover, the Kd at WDR5 protein (setting [2]) and at WDR5 protein (setting [3]) was 9 nM in each case. The residence time at WDR5 protein (SPR) is 4.59 min.

For `Cc1cc(C(=O)Nc2cc(-c3cc(CN4CCOCC4)ccc3F)ccc2N2CCN(C)CC2)ccc1F` [Example 36, 4-fluoro-N-(2′-fluoro-4-(4-methylpiperazin-1-yl)-5′-(morpholinomethyl)-[1,1′-biphenyl]-3-yl)-3-methylbenzamide], the IC50 at MLL1-WRAD2 complex (setting [1]) is greater than 30000 nM. The Kd at WDR5 protein (setting [2]) and on WDR5 protein (setting [3]) was 4 nM each time. In addition, the residence time at WDR5 protein (SPR) came to 0.12 min.

Consider `CN(C)Cc1ccc(F)c(-c2ccc(N3CCN(C)CC3)c(NC(=O)c3c[nH]c(=O)cc3C(F)(F)F)c2)c1` [Example 40, N-(5′-((dimethylamino)methyl)-2′-fluoro-4-(4-methylpiperazin-1-yl)-[1,1′-biphenyl]-3-yl)-6-oxo-4-(trifluoromethyl)-1,6-dihydropyridine-3-carboxamide], for which the IC50 on MLL1-WRAD2 complex (setting [1]) came to 6290 nM. Moreover, the dissociation constant Kd at WDR5 protein (setting [2]) and on WDR5 protein (setting [3]) was 9 nM throughout. In addition, the residence time on WDR5 protein (SPR) is 2.52 min.

Regarding `CN(C)C1CCN(c2ccc(-c3cc(CN4CCOCC4)ccc3F)cc2NC(=O)c2c[nH]c(=O)cc2C(F)(F)F)C1` (stereo not shown) [Example 87, N-(4-(3-(dimethylamino)pyrrolidin-1-yl)-2′-fluoro-5′-(morpholinomethyl)-[1,1′-biphenyl]-3-yl)-6-oxo-4-(trifluoromethyl)-1,6-dihydropyridine-3-carboxamide], the IC50 at MLL1-WRAD2 complex (setting [1]) was found to be 3890 nM.

Regarding `C[C@@H]1CN(c2ccc(-c3ccc(C(N)=O)cc3F)cc2NC(=O)c2c[nH]c(=O)cc2C(F)(F)F)C[C@H](C)N1C` [Example 117, N-(4′-carbamoyl-2′-fluoro-4-((3S,5R)-3,4,5-trimethylpiperazin-1-yl)-[1,1′-biphenyl]-3-yl)-6-oxo-4-(trifluoromethyl)-1,6-dihydropyridine-3-carboxamide], the Kd stood at 1.7 nM at WDR5 protein (setting [2]) and 1.6 nM on WDR5 protein (setting [3]). At WDR5 protein (SPR), the residence time worked out at 7.9 min.

Consider `C[C@@H]1CN(c2ccc(-c3ccc(N4CCOCC4)cc3F)cc2NC(=O)c2c[nH]c(=O)cc2C(F)(F)F)C[C@H](C)N1C` [Example 118, N-(2′-fluoro-4′-morpholino-4-((3S,5R)-3,4,5-trimethylpiperazin-1-yl)-[1,1′-biphenyl]-3-yl)-6-oxo-4-(trifluoromethyl)-1,6-dihydropyridine-3-carboxamide], for which the figures for the Kd on WDR5 protein and at WDR5 protein (setting [3]) were 5.6 nM and 6 nM, respectively. At WDR5 protein (SPR), the residence time came to 7.2 min.

Turning to `C[C@@H]1CN(c2ccc(-c3cc(C(N)=O)ccc3F)cc2NC(=O)c2c[nH]c(=O)cc2C(F)(F)F)C[C@H](C)N1C` [Example 119, N-(5′-carbamoyl-2′-fluoro-4-((3S,5R)-3,4,5-trimethylpiperazin-1-yl)-[1,1′-biphenyl]-3-yl)-6-oxo-4-(trifluoromethyl)-1,6-dihydropyridine-3-carboxamide], the Kd at WDR5 protein (setting [2]) stood at 3.7 nM; on WDR5 protein (setting [3]), 4 nM. The residence time on WDR5 protein (SPR) turned out to be 2.8 min.

In the case of `C[C@@H]1CN(c2ccc(-c3cc(C(=O)NC(C)(C)CC(C)(C)C)c(F)cc3F)cc2NC(=O)c2c[nH]c(=O)cc2C(F)(F)F)C[C@H](C)N1C` [Example 120, N-(2′,4′-difluoro-5′-((2,4,4-trimethylpentan-2-yl)carbamoyl)-4-((3S,5R)-3,4,5-trimethylpiperazin-1-yl)-[1,1′-biphenyl]-3-yl)-6-oxo-4-(trifluoromethyl)-1,6-dihydropyridine-3-carboxamide], the Kd on WDR5 protein (setting [2]) and on WDR5 protein (setting [3]) was 6 nM throughout. Moreover, the residence time on WDR5 protein (SPR) was 12.5 min.

Regarding `C[C@@H]1CN(c2ccc(-c3cc(C(N)=O)c(F)cc3F)cc2NC(=O)c2c[nH]c(=O)cc2C(F)(F)F)C[C@H](C)N1C` [Example 121, N-(5′-carbamoyl-2′,4′-difluoro-4-((3S,5R)-3,4,5-trimethylpiperazin-1-yl)-[1,1′-biphenyl]-3-yl)-6-oxo-4-(trifluoromethyl)-1,6-dihydropyridine-3-carboxamide], the Kd at WDR5 protein (setting [2]) is 9.2 nM; at WDR5 protein (setting [3]), 9 nM. The residence time on WDR5 protein (SPR) was found to be 2.3 min.

On to `C[C@@H]1CN(c2ccc(-c3ccc(C(=O)NC(C)(C)CC(C)(C)C)c(F)c3F)cc2NC(=O)c2c[nH]c(=O)cc2C(F)(F)F)C[C@H](C)N1C` [Example 122, N-(2′,3′-difluoro-4′-((2,4,4-trimethylpentan-2-yl)carbamoyl)-4-((3S,5R)-3,4,5-trimethylpiperazin-1-yl)-[1,1′-biphenyl]-3-yl)-6-oxo-4-(trifluoromethyl)-1,6-dihydropyridine-3-carboxamide], for which the values for the Kd at WDR5 protein (setting [2]) and at WDR5 protein (setting [3]) were 7.6 nM and 8 nM, respectively. Further, the residence time at WDR5 protein (SPR) was 6.7 min.

On to `C[C@@H]1CN(c2ccc(-c3ccc(C(N)=O)c(F)c3F)cc2NC(=O)c2c[nH]c(=O)cc2C(F)(F)F)C[C@H](C)N1C` [Example 123, N-(4′-carbamoyl-2′,3′-difluoro-4-((3S,5R)-3,4,5-trimethylpiperazin-1-yl)-[1,1′-biphenyl]-3-yl)-6-oxo-4-(trifluoromethyl)-1,6-dihydropyridine-3-carboxamide], for which the results for the Kd on WDR5 protein (setting [2]) and at WDR5 protein (setting [3]) were 3.6 nM and 4 nM, respectively. For the same compound, the residence time on WDR5 protein (SPR) was found to be 4.2 min.

As to `CN1CCN(c2ccc(-c3cc(CN4CCOCC4)ccc3Cl)cc2NC(=O)c2c[nH]c(=O)cc2C(F)(F)F)CC1` [drawing 288, reference compound], on WDR5 protein (setting [4]), the Kd came to 34.5 nM.

As to `CN1CCN(c2ccc(-c3cc(CN4CCOCC4)ccc3F)cc2NC(=O)c2c[nH]c(=O)cc2C(F)(F)F)CC1` [drawing 289], the IC50 at MLL1-WRAD2 complex (Table 4, effect of Fluoro-substitution, read-out: IC50 (MLL1)) stood at 939 nM.

For `CN1CCN(c2ccc(-c3cc(C(=O)NC4CCCCC4)ccc3F)cc2NC(=O)c2c[nH]c(=O)cc2C(F)(F)F)CC1` [drawing 291], the Kd at WDR5 protein (setting [4]) worked out at 6 nM.

Consider `CN1CCN(c2ccc(-c3cccc(CN4CCC(F)CC4)c3)cc2NC(=O)c2c[nH]c(=O)cc2C(F)(F)F)CC1` [reference compound], for which, on WDR5 protein (Table 4, effect of Fluoro-substitution), the τ is 0.91 min. Besides, the Kd on WDR5 protein (setting [4]) amounted to 30 nM.
